Consider seven compounds from ChEMBL document CHEMBL1128843, “Protein kinase C- inhibitors; structure-activity relationships in bis-indole series” (Bioorg Med Chem Lett, 1995).

For this experiment, the target named is Protein kinase C alpha type (Homo sapiens, UniProt P17252). Description: Inhibition of Protein kinase C alpha.

Molecules are shown by their SMILES.

In general, IC50 refers to the concentration needed to halve the response being measured. Read a high IC50 as a need for much substance. On to `COC(=O)c1cc(NC(=O)c2cc(C(=O)c3cc(NC(=O)Cn4cc(C5=C(c6c[nH]c7ccccc67)C(=O)NC5=O)c5ccccc54)cn3C)cn2C)cn1C`, for which the concentration for half-maximal inhibition (IC50) is 170 nM. Next, `CN(C)CCCNC(=O)c1cc(NC(=O)c2cc(NC(=O)c3cc(NC(=O)Cn4cc(C5=C(c6c[nH]c7ccccc67)C(=O)NC5=O)c5ccccc54)cn3C)cn2C)cn1C`: 460 nM; `COC(=O)c1cc(NC(=O)c2cc(NC(=O)Cn3cc(C4=C(c5c[nH]c6ccccc56)C(=O)NC4=O)c4ccccc43)cn2C)cn1C`: 280 nM.

For `CN(C)CCCNC(=O)c1cc(NC(=O)c2cc(NC(=O)Cn3cc(C4=C(c5c[nH]c6ccccc56)C(=O)NC4=O)c4ccccc43)cn2C)cn1C`, the concentration for half-maximal inhibition (IC50) was determined as 630 nM. The figure for `CN(C)CCCNC(=O)c1cc(NC(=O)Cn2cc(C3=C(c4c[nH]c5ccccc45)C(=O)NC3=O)c3ccccc32)cn1C` is 1000 nM; for `COC(=O)c1cc(NC(=O)Cn2cc(C3=C(c4c[nH]c5ccccc45)C(=O)NC3=O)c3ccccc32)cn1C` it is 500 nM; for `CN(C)CCCn1cc(C2=C(c3c[nH]c4ccccc34)C(=O)NC2=O)c2ccccc21` [GF-109203] it is 10 nM.
